Measured values taken from patent US7618977B2, “Method of treating dermatitis comprising administering a chymase inhibitor” (Asubio Pharma Co., Ltd., priority 2000, dated 2009).
Structures can show the parent of a compound that is named as a salt. One block for each compound: values may come before it.

Legend:
[1] = test system: dermatitis induced by repeated application of hapten; test: Mouse dermatitis model induced by repeated application of hapten (DNFB), ear thickness; format: in vivo, C3H/HeN mice; details: for suppression of increase in ear thickness (skin reaction after hapten application): five days a week
Procedure: Dermatitis was induced in accordance with an already reported method (J. Pharmacol. Exp. Ther. 283, 321, 1997) using dinitrofluorobenzene (DNFB) as hapten. That is, the right ears of eight-week old female C3H/HeN mice (Nippon Clare) (n=7) were painted with 0.15% DNFB (25 μl) dissolved in an acetone/olive oil (3:1) every seven days six times. When applying the hapten each time, the ear thickness was measured by a micrometer (Digimatic Indicator, Mitsutoyo Co.) immediately before the application and 1 hour, 6 hours, 24 hours, and 48 hours after the application so as to find the amount of increase from the ear thickness before the first application of hapten. Further, a group similarly treated with an acetone/olive oil solution (3:1) not containing DNFB was used as a control. Further, in a test separate from the above, the ears were cut off immediately before the third application of hapten, the chymase-like activity of the skin was measured in accordance with an already reported method (n=3), and this was compared with the activity of mice treated with an acetone/olive oil solution (3:1) not containing DNFB (n=2).
The effect of a test substance on dermatitis was investigated by inducing dermatitis in accordance with the method described in Example 9 (n=7) and measuring the ear thickness in the same way as in Example 9. As the test substance, three chymase inhibitors (Compound 18, Compound 34, and Compound 35) were used, while as the control, the steroid prednisolone (Nakarai Tesc Inc.) was used. Further, the test substance was suspended in saline containing 0.5% hydroxypropyl cellulose in the same way as in Example 3 (HPC/saline) and intraperitoneally administered in dosages of 10 mg/kg or 50 mg/kg once a day for five consecutive days a week until the end of the test; the first administration was performed immediately before the start of the hapten application. Further, a group similarly treated with DNFB and administered HPC/saline instead of the test substance was used as a control group.

eosinophils of the skin = test: Increase in eosinophils of skin in hapten-induced mouse dermatitis model; format: in vivo, C3H/HeN mice; details: 48 hours after sixth application of hapten
Procedure: The effect of a chymase inhibitor on the infiltration of eosinophils of the skin in the test of Example 10 was studied. That is, 48 hours after the sixth application of hapten, the ears of the mice were fixed with formalin and paraffin sections prepared in accordance with an ordinary method. The sections were stained with Fast Green (Fluka), known to specifically stain eosinophils (Current Protocol in Immunology, Wiley Interscience). That is, the deparaffined sections were fixed with 100% methanol for 1 minute, then stained for 30 minutes by 0.2% Fast Green dissolved in 70% ethanol. The eosinophils were measured by randomly selecting 10 fields (×400) under a microscope and counting the number of cells per area using an ocular grid. As the chymase inhibitor, the Compound 18 and Compound 34 were used and =administered by the method described in Example 10. Further, a group treated with an acetone/olive oil solution (3:1) not containing DNFB was used as the non-induced control group, while a group treated with DNFB and administered HPC/saline instead of the test substance was used as the control for the group administered the chymase inhibitor.

[2] = test system: human polymorphonuclear leukocytes (PMN); test: Human chymase-induced migration of polymorphonuclear leukocytes, 48-well chemotaxis chamber; format: cell-based; details: inhibitor in lower well, 1% dimethyl sulfoxide, 37° C. 1 hour
Procedure: In Example 6, it was shown that a remarkable infiltration of leukocytes is observed in late-phase reaction of human chymase-induced dermatitis. The effect of human chymase on the migration of polymorphonuclear leukocytes (PMN) in vitro was investigated for the purpose of investigating the mechanism of chymase-induced leukocyte infiltration. PMN was isolated by adding a ⅕th volume of 6% dextran solution to heparinized whole blood from normal healthy subject and allowing it to stand at 37° C. for 1 hour, then layering the supernatent on Ficoll-Paque (Amersham Pharmacia Biotech) and centrifuging it. Further, the migration of PMN was measured by using a 48-well chemotaxis chamber (NeuroProbe Co.) by the textbook method (Seibutsu Yakkagaku Jikken Koza (Biopharmacology Experiment Lectures) 12, 315, Hirokawa Shoten). That is, a medium containing human chymase (200 to 800 nM) or fMLP (N-formyl-L-methionyl-L-leucyl-L-phenylalanine, Sigma-Aldrich Co.) (10 nM) was placed in the lower well of the chamber. The upper well and the lower well were separated by a polycarbonate filter (pore size 5 μm) (NeuroProbe Co.) PMN (1×10^6/ml) was added to the upper well and cultured at 37° C. for 1 hour, then the filter was fixed, stained and the number of cells in the membrane were counted under a microscope (400×) (Seibutsu Yakkagaku Jikken Koza (Biopharmacology Experiment Lectures) 12, 315). For the cell staining, a hemacolor solution (Merck) was used. In this test, when investigating the effect of the chymase inhibitor, a chymase inhibitor (Compound 18 or Compound 34) was dissolved in dimethyl sulfoxide and added to the lower well of the chamber just before the addition of the human chymase. The concentration of the compound was adjusted so that the final concentration of the dimethyl sulfoxide became 1%.

[3] = test system: Ascaris-induced mouse biphasic dermatitis; test: Ascaris-induced mouse biphasic dermatitis model, ear edema; format: in vivo, BALB/c mice
Procedure: Ascaris-induced biphasic dermatitis was induced according to the method described previously (Folia Pharmacol. Jap. 112, 221, 1998). That is, 8-week old BALB/c mice (Charles River Japan) were sensitized by intraperitoneal injection of 0.5 ml of a 1:1 mixture of ascaris extract (800 μg/ml, Cosmo Bio Co., Ltd.) and an alum saline suspension (16 mg/ml in saline). Two weeks after the sensitization, 10 μl of ascaris extract (1 mg/ml) was injected intradermally to the right ear of mice. The edema induced at the ear were evaluated immediately before intradermal injection of the ascaris extract (n=3) and 1 hour after (n=4), 2 hours after (n=4), 4 hours after (n=4), 6 hours after (n=4), 16 hours after (n=4), and 24 hours after injection (n=4), by weighing ear biopsy prepared with a punch (a diameter of 6 mm, Fukui Kiko Shokai) and measuring their weights. The edema (mg) was expressed as the difference in the weight of the ear punch biopsy between the right and the left ears of the same mouse. Dermatitis was induced in accordance with the method described in Example 2 and the ear edema was measured in the same way as in Example 2, 1 hour (n=6) and 16 hours (n=8) after the intradermal administration of ascaris extract to the ears to investigate the effects of the test substance on dermatitis. As the chymase inhibitor, Compound 34 was used. As the control drug, diphenhydrazine (antihistamine, Sigma) and prednisolone (steroid, Nakarai Tesc Co.) were used. Each drug under study was suspended in saline containing 0.5% hydroxypropyl cellulose and administered intraperiotoneally 60 minutes before intradermal administration of ascaris extract. A group of mice sensitized with ascaris extract and challenged by intradermal injection of saline was used as a control (n=3).

mast cells of skin = test: Increase in number of mast cells of skin in hapten-induced mouse dermatitis model; format: in vivo, C3H/HeN mice; details: 48 hours after sixth application of hapten
Procedure: The effect of a chymase inhibitor on the increase in mast cells of skin in the test of Example 10 was studied. In the same way as Example 11, the ears of the mice were fixed with formalin and paraffin sections prepared by an ordinary method 48 hours after the sixth application of hapten. The mast cells of the sections were stained by the Toluidine Blue method, then the number of mast cells were counted under a microscope (×400) for 10 fields per section. The density of mast cells of the skin was measured in accordance with the method of Kitagaki et al. (J. Invest. Dermatol. 105, 749, 1995). As the chymase inhibitor, use was made of Compound 18 and Compound 34. These were administered by the method described in Example 10. Further, a group treated with an acetone/olive oil solution (3:1) not containing DNFB was used as the non-induced control group, while a group treated with DNFB and administered HPC/saline instead of the test substance was used as the control for the group administered the chymase inhibitor.

natural onset dermatitis = test: Natural onset dermatitis (NC/Nga) mice; format: in vivo; details: 150 mg/kg/day in drinking water, 35 days
Text: NC/Nga mice were bred and raised in accordance with the methods described in previous reports (Progress in Medicine 19, 1201, 1999). Specifically, 5-week old NC/Nga mice obtained from Charles River Japan and raised under a specific pathogen free (SPF) environment were mixed with NC/Nga mice bred by the Faculty of Applied Biological Science of Hiroshima University starting from 6 weeks of age, kept until 15 weeks of age in a normal non-SPF environment, then used for the tests. The tests were conducted under non-SPF, conventional environment. The test substance (Compound 18) was mixed with the drinking water and administered for 35 consecutive days at 150 mg/kg/day (n=7), then an evaluation was conducted in accordance with the method described in previous reports (Progress in Medicine 19, 1201, 1999). That is, first, 35 days after the start of administration, the five items of (1) scratching behavior, (2) edema, (3) erythema and hemorrhaging, (4) depilation and ulceration, and (5) dryness were scored as 0 to 2 and the total found to judge the outer appearance of the skin. Next, the ears and skin of the back were fixed with formalin, embedded in paraffin, and histologically analyzed by staining the ear specimens by the hematoxylin and Eosin method, Toluidine Blue method, or Congo Red method (Stain Technol. 56, 323, 1981) and by staining the back skin specimens by the Toluidine Blue method or Congo Red method. Sections of the ear stained with Hematoxylin and Eosin were evaluated by judging the change in tissue in four scales of 0 to 3 for three items of (1) thickness of epidermis, (2) thickness of dermis, and (3) cellular infiltration and expressing as the total score. Further, the specimens stained with Toluidine Blue and stained with Congo Red were used for counting the mast cells and eosinophils. Specifically, the eosinophils of the back skin were counted in a ×400 field of a microscope, while the other cells were counted in a total of five ×200 fields and the totals expressed.

[4] = 10 mg/kg intraperitoneal once a day
[5] = 50 mg/kg intraperitoneal once a day, p<0.05 Dunnett's test
[6] = 50 mg/kg intraperitoneal, 60 minutes before ascaris extract, p<0.01

suppression of human chymase-promoted migration of human PMN [2]: significantly suppressed
Compound: CS(=O)(=O)O.Nc1cccc(S(=O)(=O)n2c(=O)[nH]c3cc(Cl)ccc3c2=O)c1 [Compound 34, 3-(3-aminobenzenesulfonyl)-7-chloro-2,4-(1H,3H)quinazolinedion Methanesulfonic Acid Salt]
suppression of increase in ear thickness (skin reaction after hapten application) [1, 4]: significant suppressive effect
suppression of increase in ear thickness (skin reaction after hapten application) [1, 5]: significantly suppressed
effect on increase in eosinophils (eosinophils of the skin; 10 and 50 mg/kg intraperitoneal): no statistically significant difference
rate of suppression, early-phase reaction (ear edema after 1 hour) [3, 6]: about 41%
rate of suppression, late-phase reaction (ear edema after 16 hours) [3, 6]: about 45%
rate of suppression of increase in density of mast cells (mast cells of skin; 10 mg/kg intraperitoneal): about 37%
rate of suppression of increase in density of mast cells (mast cells of skin; 50 mg/kg intraperitoneal): about 51%

suppression of human chymase-promoted migration of human PMN [2]: significantly suppressed
Compound: Nc1cc(S(=O)(=O)n2c(=O)[nH]c3cc(Cl)ccc3c2=O)ccc1C(=O)O [Compound 18, 4-[(7-chloro-2.4 (1H,3H)-quinazolinedion-3-yl)sulfonyl]anthranilic Acid Monosodium Salt]
suppression of increase in ear thickness (skin reaction after hapten application) [1, 4]: significant effect
suppression of increase in ear thickness (skin reaction after hapten application) [1, 5]: significantly suppressed
number of mast cells of ear skin and back skin (natural onset dermatitis): significant suppressive effect
numbers of eosinophils of ear skin and back skin (natural onset dermatitis): significantly suppressed
histological score of the ears (natural onset dermatitis; p<0.05 Mann-Whitney): decreased significantly
dermatitis score (clinical skin score) (natural onset dermatitis; vs control group, p<0.05 Mann-Whitney): decreased significantly
rate of suppression of increase in eosinophils (eosinophils of the skin; 10 mg/kg intraperitoneal): 37.1%
rate of suppression of increase in eosinophils (eosinophils of the skin; 50 mg/kg intraperitoneal): 60.5%
rate of suppression of increase in density of mast cells (mast cells of skin; 10 mg/kg intraperitoneal): about 57%
rate of suppression of increase in density of mast cells (mast cells of skin; 50 mg/kg intraperitoneal): about 64%

Compound: CN(C)CCOC(c1ccccc1)c1ccccc1 [diphenhydrazine]
rate of suppression, early-phase reaction ([3]; control drug, intraperitoneal, dose not given, 1 hour after challenge): 79%
effect against the late-phase reaction ([3]; control drug, intraperitoneal, dose not given, 16 hours after challenge): almost no effect

Compound: Cl.O=c1[nH]c2cc(Cl)ccc2c(=O)n1S(=O)(=O)c1ccc(-c2cc[nH]n2)cc1 [Compound 35, 7-chloro-3-[4-(pyrazol-3-yl)benzenesulfonyl]-2,4(1H,3H)-quinazolinedione Hydrochloride]
suppression of increase in ear thickness (skin reaction after hapten application) [1, 5]: significantly suppressed

Compound: C[C@]12C=CC(=O)C=C1CC[C@@H]1[C@@H]2[C@@H](O)C[C@@]2(C)[C@H]1CC[C@]2(O)C(=O)CO [Prednisolone, prednisolone]
suppression of dermatitis (ear thickness) ([1]; control drug, 10 mg/kg or 50 mg/kg intraperitoneal): suppressed dermatitis in this model in a dose-dependent manner
rate of suppression, late-phase reaction ([3]; 30 mg/kg intraperitoneal, 16 hours after challenge): 67%
effect against the early-phase reaction ([3]; control drug, intraperitoneal, 1 hour after challenge): substantially ineffective
